From PubChem BioAssay AID1918953 (Molecular Pharmacology Branch, DTP, NCI, 2023)

System: MDA-MB-231 complex spheroid viability
Test: Anticancer human tumor MDA-MB-231/ATCC cell line growth inhibition;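 further: drug exposure lasted 7 days starting on day 3 of spheroid growth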
Settings: for IC50: curve of first compound; for viability, T/C: stronger effect = lower value
Method in brief: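 Multicellular complex spheroids of tumor cells with human endothelial cells (HUVEC) and mesenchymal stem cells; the LSD1 inhibitor iadademstat was combined with standard-of-care or investigational agents. Top concentration at or near clinical Cmax, half-log dilutions; final DMSO ≤0.25%.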

[1] = second compound 0.1 µM, first compound 0.000316 µM
[2] = second compound 0.1 µM, first compound 0.001 µM
[3] = second compound 0.1 µM, first compound 0.00316 µM
[4] = second compound 0.1 µM, first compound 0.01 µM
[5] = second compound 0.1 µM, first compound 0.0316 µM
[6] = second compound 0.1 µM, first compound 0.1 µM
[7] = second compound 0.316 µM, first compound 0.000316 µM
[8] = second compound 0.316 µM, first compound 0.001 µM
[9] = second compound 0.316 µM, first compound 0.00316 µM
[10] = second compound 0.316 µM, first compound 0.01 µM
[11] = second compound 0.316 µM, first compound 0.0316 µM
[12] = second compound 0.316 µM, first compound 0.1 µM
[13] = second compound 1 µM, first compound 0.000316 µM
[14] = second compound 1 µM, first compound 0.001 µM
[15] = second compound 1 µM, first compound 0.00316 µM
[16] = second compound 1 µM, first compound 0.01 µM
[17] = second compound 1 µM, first compound 0.0316 µM
[18] = second compound 1 µM, first compound 0.1 µM
[19] = second compound 3.16 µM, first compound 0.000316 µM
[20] = second compound 3.16 µM, first compound 0.001 µM
[21] = second compound 3.16 µM, first compound 0.00316 µM
[22] = second compound 3.16 µM, first compound 0.01 µM
[23] = second compound 3.16 µM, first compound 0.0316 µM
[24] = second compound 3.16 µM, first compound 0.1 µM
[25] = second compound 10 µM, first compound 0.000316 µM
[26] = second compound 10 µM, first compound 0.001 µM
[27] = second compound 10 µM, first compound 0.00316 µM
[28] = second compound 10 µM, first compound 0.01 µM
[29] = second compound 10 µM, first compound 0.0316 µM
[30] = second compound 10 µM, first compound 0.1 µM
[31] = second compound 0.1 µM, first compound 0.00949 µM
[32] = second compound 0.1 µM, first compound 0.03 µM
[33] = second compound 0.1 µM, first compound 0.0949 µM
[34] = second compound 0.1 µM, first compound 0.3 µM
[35] = second compound 0.1 µM, first compound 0.949 µM
[36] = second compound 0.1 µM, first compound 3 µM
[37] = second compound 0.316 µM, first compound 0.00949 µM
[38] = second compound 0.316 µM, first compound 0.03 µM
[39] = second compound 0.316 µM, first compound 0.0949 µM
[40] = second compound 0.316 µM, first compound 0.3 µM
[41] = second compound 0.316 µM, first compound 0.949 µM
[42] = second compound 0.316 µM, first compound 3 µM
[43] = second compound 1 µM, first compound 0.00949 µM
[44] = second compound 1 µM, first compound 0.03 µM
[45] = second compound 1 µM, first compound 0.0949 µM
[46] = second compound 1 µM, first compound 0.3 µM
[47] = second compound 1 µM, first compound 0.949 µM
[48] = second compound 1 µM, first compound 3 µM
[49] = second compound 3.16 µM, first compound 0.00949 µM
[50] = second compound 3.16 µM, first compound 0.03 µM
[51] = second compound 3.16 µM, first compound 0.0949 µM
[52] = second compound 3.16 µM, first compound 0.3 µM
[53] = second compound 3.16 µM, first compound 0.949 µM
[54] = second compound 3.16 µM, first compound 3 µM
[55] = second compound 10 µM, first compound 0.00949 µM
[56] = second compound 10 µM, first compound 0.03 µM
[57] = second compound 10 µM, first compound 0.0949 µM
[58] = second compound 10 µM, first compound 0.3 µM
[59] = second compound 10 µM, first compound 0.949 µM
[60] = second compound 10 µM, first compound 3 µM

CC(C)CC(NC(=O)C(Cc1ccccc1)NC(=O)c1cnccn1)B(O)O (stereo not given) + NC1CCC(NC2CC2c2ccccc2)CC1
IC50 (second compound 0.1 µM): 1.2 nM
IC50 (second compound 0.316 µM): 1.23 nM
IC50 (second compound 1 µM): 1.05 nM
IC50 (second compound 3.16 µM): 0.729 nM
IC50 (second compound 10 µM): 0.478 nM
viability, T/C [1]: 106%
viability, T/C [2]: 59.2%
viability, T/C [3]: 1.89%
viability, T/C [4]: 0.42%
viability, T/C [5]: 0.53%
viability, T/C [6]: 3.01%
viability, T/C [7]: 107%
viability, T/C [8]: 60.7%
viability, T/C [9]: 1.73%
viability, T/C [10]: 0.23%
viability, T/C [11]: 0.28%
viability, T/C [12]: 0.27%
viability, T/C [13]: 104%
viability, T/C [14]: 52%
viability, T/C [15]: 3.37%
viability, T/C [16]: 0.18%
viability, T/C [17]: 0.38%
viability, T/C [18]: 0.72%
viability, T/C [19]: 70%
viability, T/C [20]: 42.4%
viability, T/C [21]: 1.87%
viability, T/C [22]: 0.16%
viability, T/C [23]: 0.08%
viability, T/C [24]: 0.54%
viability, T/C [25]: 58.9%
viability, T/C [26]: 34.1%
viability, T/C [27]: 0.9%
viability, T/C [28]: 0.23%
viability, T/C [29]: 1.54%
viability, T/C [30]: 1.08%

CC(C)CC(NC(=O)CNC(=O)c1cc(Cl)ccc1Cl)B1OC(=O)CC(CC(=O)O)(C(=O)O)O1 (stereo not given) + NC1CCC(NC2CC2c2ccccc2)CC1
IC50 (second compound 0.1 µM): 7.26 nM
IC50 (second compound 0.316 µM): 7.08 nM
IC50 (second compound 1 µM): 7.23 nM
IC50 (second compound 3.16 µM): 5.75 nM
IC50 (second compound 10 µM): 3.98 nM
viability, T/C [1]: 105%
viability, T/C [2]: 110%
viability, T/C [3]: 85%
viability, T/C [4]: 36.5%
viability, T/C [5]: 5.81%
viability, T/C [6]: 0.78%
viability, T/C [7]: 98.9%
viability, T/C [8]: 107%
viability, T/C [9]: 81.8%
viability, T/C [10]: 36.4%
viability, T/C [11]: 5.22%
viability, T/C [12]: 0.88%
viability, T/C [13]: 102%
viability, T/C [14]: 107%
viability, T/C [15]: 85.8%
viability, T/C [16]: 36%
viability, T/C [17]: 4.74%
viability, T/C [18]: 0.52%
viability, T/C [19]: 83.8%
viability, T/C [20]: 86.7%
viability, T/C [21]: 69.4%
viability, T/C [22]: 31.7%
viability, T/C [23]: 3.87%
viability, T/C [24]: 0.63%
viability, T/C [25]: 57.6%
viability, T/C [26]: 61.2%
viability, T/C [27]: 55.8%
viability, T/C [28]: 25.7%
viability, T/C [29]: 2.19%
viability, T/C [30]: 0.65%

Nc1ccccc1NC(=O)c1ccc(CNC(=O)OCc2cccnc2)cc1 + NC1CCC(NC2CC2c2ccccc2)CC1
IC50 (second compound 0.1 µM): 62.2 nM
IC50 (second compound 0.316 µM): 65.8 nM
IC50 (second compound 1 µM): 50.7 nM
IC50 (second compound 3.16 µM): 38.5 nM
IC50 (second compound 10 µM): 26.3 nM
viability, T/C [31]: 89.4%
viability, T/C [32]: 61%
viability, T/C [33]: 39%
viability, T/C [34]: 31.5%
viability, T/C [35]: 15.9%
viability, T/C [36]: 3.58%
viability, T/C [37]: 86.2%
viability, T/C [38]: 64.6%
viability, T/C [39]: 39.6%
viability, T/C [40]: 29.4%
viability, T/C [41]: 16.3%
viability, T/C [42]: 2.82%
viability, T/C [43]: 85%
viability, T/C [44]: 58%
viability, T/C [45]: 37%
viability, T/C [46]: 26.4%
viability, T/C [47]: 14.3%
viability, T/C [48]: 2.97%
viability, T/C [49]: 72.7%
viability, T/C [50]: 54.1%
viability, T/C [51]: 35.7%
viability, T/C [52]: 20.6%
viability, T/C [53]: 10.1%
viability, T/C [54]: 1.4%
viability, T/C [55]: 63.2%
viability, T/C [56]: 47.7%
viability, T/C [57]: 32.2%
viability, T/C [58]: 15.1%
viability, T/C [59]: 7.15%
viability, T/C [60]: 0.5%

O=C(C=Cc1cccc(S(=O)(=O)Nc2ccccc2)c1)NO + NC1CCC(NC2CC2c2ccccc2)CC1
IC50 (second compound 0.1 µM): 113 nM
IC50 (second compound 0.316 µM): 106 nM
IC50 (second compound 1 µM): 66.2 nM
IC50 (second compound 3.16 µM): 21.9 nM
IC50 (second compound 10 µM): < 9.49 nM
viability, T/C [31]: 90.7%
viability, T/C [32]: 75.7%
viability, T/C [33]: 53%
viability, T/C [34]: 30.5%
viability, T/C [35]: 13.7%
viability, T/C [36]: 0.59%
viability, T/C [37]: 86.3%
viability, T/C [38]: 69.6%
viability, T/C [39]: 53.5%
viability, T/C [40]: 30.8%
viability, T/C [41]: 14.1%
viability, T/C [42]: 1.38%
viability, T/C [43]: 79.1%
viability, T/C [44]: 61.8%
viability, T/C [45]: 43.6%
viability, T/C [46]: 30.3%
viability, T/C [47]: 11.3%
viability, T/C [48]: 0.68%
viability, T/C [49]: 61.4%
viability, T/C [50]: 45.3%
viability, T/C [51]: 31%
viability, T/C [52]: 20.8%
viability, T/C [53]: 6.19%
viability, T/C [54]: 0.34%
viability, T/C [55]: 39.8%
viability, T/C [56]: 29.8%
viability, T/C [57]: 17.9%
viability, T/C [58]: 13.9%
viability, T/C [59]: 3.39%
viability, T/C [60]: 0.33%

O=C(c1cc(Cc2n[nH]c(=O)c3ccccc23)ccc1F)N1CCN(C(=O)C2CC2)CC1 + NC1CCC(NC2CC2c2ccccc2)CC1
IC50 (second compound 0.1 µM): > 10000 nM
IC50 (second compound 0.316 µM): > 10000 nM
IC50 (second compound 1 µM): > 10000 nM
IC50 (second compound 3.16 µM): 7580 nM
IC50 (second compound 10 µM): 2460 nM
viability, T/C [5]: 101%
viability, T/C [6]: 94.5%
viability, T/C (second compound 0.1 µM, first compound 0.316 µM): 87.5%
viability, T/C (second compound 0.1 µM, first compound 1 µM): 79.3%
viability, T/C (second compound 0.1 µM, first compound 3.16 µM): 66.8%
viability, T/C (second compound 0.1 µM, first compound 10 µM): 56.2%
viability, T/C [11]: 98.9%
viability, T/C [12]: 102%
viability, T/C (second compound 0.316 µM, first compound 0.316 µM): 93.5%
viability, T/C (second compound 0.316 µM, first compound 1 µM): 82.1%
viability, T/C (second compound 0.316 µM, first compound 3.16 µM): 66.1%
viability, T/C (second compound 0.316 µM, first compound 10 µM): 52.7%
viability, T/C [17]: 93.1%
viability, T/C [18]: 94.5%
viability, T/C (second compound 1 µM, first compound 0.316 µM): 84.3%
viability, T/C (second compound 1 µM, first compound 1 µM): 74.5%
viability, T/C (second compound 1 µM, first compound 3.16 µM): 67.1%
viability, T/C (second compound 1 µM, first compound 10 µM): 57.6%
viability, T/C [23]: 80.8%
viability, T/C [24]: 77.5%
viability, T/C (second compound 3.16 µM, first compound 0.316 µM): 74.2%
viability, T/C (second compound 3.16 µM, first compound 1 µM): 70.2%
viability, T/C (second compound 3.16 µM, first compound 3.16 µM): 56.8%
viability, T/C (second compound 3.16 µM, first compound 10 µM): 47.9%
viability, T/C [29]: 64.4%
viability, T/C [30]: 61.9%
viability, T/C (second compound 10 µM, first compound 0.316 µM): 63%
viability, T/C (second compound 10 µM, first compound 1 µM): 55.3%
viability, T/C (second compound 10 µM, first compound 3.16 µM): 47.4%
viability, T/C (second compound 10 µM, first compound 10 µM): 37.6%
